The record followed here is patent publication US7811797B2, “α-isomaltosylglucosaccharide-forming enzyme, process and uses of the same” (Kabushiki Kaisha Hayashibara Seibutsu Kagaku Kenkyujo, priority 2000, dated 2010).

Like-named read-outs stand apart in the source and are kept apart here.

For test [1], the system named is α-isomaltosyl-transferring enzyme. Briefly: Influence of metal ions on the activity of α-isomaltosyl-transferring enzyme (Strain C9). Type of test: biochemical, Bacillus globisporus C9. The settings on record: for Relative activity (%): 1 mM of each metal-ion. Here is the method:
The α-isomaltosyl-transferring enzyme was assayed for enzymatic activity by dissolving panose in 100 mM acetate buffer (pH 6.0) to give a concentration of 2% (w/v) for a substrate solution, adding a 0.5 ml of an enzyme solution to 0.5 ml of the substrate solution, enzymatically reacting the mixture solution at 35° C. for 30 min, suspending the reaction mixture by boiling for 10 min, and quantifying glucose, among the cyclotetrasaccharide and glucose formed in the reaction mixture, by the glucose oxidase method. One unit activity of the α-isomaltosyl-transferring enzyme is defined as the enzyme amount that forms one micromole of glucose per minute under the above enzymatic reaction conditions. Throughout the specification, the enzymatic activity of the α-isomaltosyl-transferring enzyme means the unit(s) assayed as above. […]

Test [2] deals with α-isomaltosylglucosaccharide-forming enzyme. Put plainly: Influence of metal ions on the activity of α-isomaltosylglucosaccharide-forming enzyme (Strain A19). The class given is biochemical, Arthrobacter globiformis A19. The settings on record: 1 mM of each metal-ion.
Test [3] deals with α-isomaltosyl-transferring enzyme. Type of test: biochemical, Bacillus globisporus C11. The settings on record: 1 mM of each metal-ion. Here is the method: (§1) The α-isomaltosyl-transferring enzyme was assayed for enzymatic activity by dissolving panose in 100 mM acetate buffer (pH 6.0) to give a concentration of 2% (w/v) for a substrate solution, adding a 0.5 ml of an enzyme solution to 0.5 ml of the substrate solution, enzymatically reacting the mixture solution at 35° C. for 30 min, suspending the reaction mixture by boiling for 10 min, and quantifying glucose, among the cyclotetrasaccharide and glucose formed in the reaction mixture, by the glucose oxidase method. One unit activity of the α-isomaltosyl-transferring enzyme is defined as the enzyme amount that forms one micromole of glucose per minute under the above enzymatic reaction conditions. Throughout the specification, the enzymatic activity of the α-isomaltosyl-transferring enzyme means the unit(s) assayed as above.
(§2) The influence of metal ions on the activity of α-isomaltosyl-transferring enzyme was examined in the presence of 1 mM of each metal-ion according to the assay for the enzyme activity.

Test [4] has the same test system. Briefly: Influence of metal ions on the activity of α-isomaltosyl-transferring enzyme (Strain N75). Type of test: biochemical, Bacillus globisporus N75. As to conditions: for Relative activity (%): 1 mM of each metal-ion. The procedure:
as §1, §2

For test [5] the test system is unchanged. Briefly: Influence of metal ions on the activity of α-isomaltosyl-transferring enzyme (Strain S1). Type of test: biochemical, Arthrobacter ramosus S1. As to conditions: 1 mM of each metal-ion. The procedure:
as §1, §2

The subject of test [6] is α-isomaltosylglucosaccharide-forming enzyme. Briefly: Influence of metal ions on the activity of α-isomaltosylglucosaccharide-forming enzyme (Strain N75). The settings on record: for Relative activity (%): 1 mM of each metal-ion; for influence on the enzyme activity, in words: 1 mM. The class given is biochemical, Bacillus globisporus N75. The procedure: (§3) One unit activity of the α-isomaltosylglucosaccharide-forming enzyme is defined as the enzyme amount that forms one micromole of maltose per minute under the above enzymatic reaction conditions. Throughout the specification, the enzymatic activity of the α-isomaltosylglucosaccharide-forming enzyme means the unit(s) assayed as above.
(§4) The influence of metal ions on the activity of α-isomaltosylglucosaccharide-forming enzyme was examined in the presence of 1 mM of each metal-ion according to the assay for the enzyme activity.

Test [7] shares this test system. Put plainly: Influence of metal ions on the activity of α-isomaltosylglucosaccharide-forming enzyme (Strain C11). Type of test: biochemical, Bacillus globisporus C11. The settings on record: for influence on the enzyme activity, in words: 1 mM; for Relative activity (%): 1 mM of each metal-ion. Here is the method:
as §3
The influence of metal ions on the activity of α-isomaltosylglucosaccharide forming enzyme was examined in the presence of 1 mM of each metal-ion according to the assay for the enzyme activity.

For test [8] the test system is unchanged. Put plainly: Influence of metal ions on the activity of α-isomaltosylglucosaccharide-forming enzyme (Strain C9). Type of test: biochemical, Bacillus globisporus C9. The settings on record: for Relative activity (%): 1 mM of each metal-ion. The procedure: as §3, §4
The test system is the same in test [9]. Put plainly: Action on saccharides (substrates), Enzyme of Strain C11. The class given is biochemical, Bacillus globisporus C11. More on the design: key: −: it showed no change; +: it showed a slight reduction of the color spot of the substrate and the formation of other reaction product; ++: it showed a high reduction of the color spot of the substrate and the formation of other reaction product; +++: it showed a substantial disappearance of the substrate spot and the formation of other reaction product. The settings on record: two units/g substrate, substrate 2% (w/v), 30° C., pH 6.0, 24 hours, TLC. Here is the method: (§5) It was tested whether saccharides can be used as substrates for the α-isomaltosylglucosaccharide-forming enzyme. For the purpose, a solution of maltose, maltotriose, maltotetraose, maltopentaose, maltohexaose, maltoheptaose, isomaltose, isomaltotriose, panose, isopanose, trehalose, kojibiose, nigerose, neotrehalose, cellobiose, gentibiose, maltitol, maltotriitol, lactose, sucrose, erlose, selaginose, maltosyl glucoside, or isomaltosyl glucoside was prepared.
(§6) To each of the above solutions was added two units/g substrate of a purified specimen of α-isomaltosylglucosaccharide-forming enzyme from either Bacillus globisporus C9 obtained by the method in Experiment 4-2, Bacillus globisporus C11 obtained by the method in Experiment 7-2, Bacillus globisporus N75 obtained by the method in Experiment 11-2, or Arthrobacter globiformis A19 obtained by the method in Experiment 15-2, and the resulting each solution was adjusted to give a substrate concentration of 2% (w/v) and incubated at 30° C. and pH 6.0, except for using pH 8.4 for the enzyme from Arthrobacter globiformis A19, for 24 hours. The enzyme solutions before and after the enzymatic reactions were respectively analyzed on TLC disclosed in Experiment 1 to confirm whether the enzymes acted on these substrates.

The test system is the same in test [10]. Put plainly: Transfer-acceptor specificity, Enzyme of Strain C11. Type of test: biochemical, Bacillus globisporus C11. The settings on record: acceptor 1.6%, PINE-DEX #100 donor 4%, one unit/g donor, 30° C., pH 6.0, 24 hours.
Test [11] has the same test system. Put plainly: Action on saccharides (substrates), Enzyme of Strain C9. The class given is biochemical, Bacillus globisporus C9. More on the design: key: −: it showed no change; +: it showed a slight reduction of the color spot of the substrate and the formation of other reaction product; ++: it showed a high reduction of the color spot of the substrate and the formation of other reaction product; +++: it showed a substantial disappearance of the substrate spot and the formation of other reaction product. The settings on record: two units/g substrate, substrate 2% (w/v), 30° C., pH 6.0, 24 hours, TLC. Here is the method: as §5, §6

Test [12] shares this test system. Briefly: Transfer-acceptor specificity, Enzyme of Strain N75. Type of test: biochemical, Bacillus globisporus N75. As to conditions: acceptor 1.6%, PINE-DEX #100 donor 4%, one unit/g donor, 30° C., pH 6.0, 24 hours. A digest of the protocol:
(§7)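 Each candidate acceptor at 1.6% was combined with 4% partial starch hydrolysate donor and 1 unit/g donor (d.s.b.) of purified enzyme. Incubation ran 24 h at 30 °C, pH 6.0 for the C9, C11 and N75 enzymes and pH 8.4 for A19. Transfer products were detected by GLC for mono- and disaccharide acceptors and HPLC for trisaccharide acceptors.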

The test system is the same in test [13]. Briefly: Action on saccharides (substrates), Enzyme of Strain A19. More on the design: key: −: it showed no change; +: it showed a slight reduction of the color spot of the substrate and the formation of other reaction product; ++: it showed a high reduction of the color spot of the substrate and the formation of other reaction product; +++: it showed a substantial disappearance of the substrate spot and the formation of other reaction product. The class given is biochemical, Arthrobacter globiformis A19. The settings on record: two units/g substrate, substrate 2% (w/v), 30° C., pH 8.4, 24 hours, TLC. The procedure:
as §5, §6

For test [14] the test system is unchanged. Put plainly: Action on saccharides (substrates), Enzyme of Strain N75. Type of test: biochemical, Bacillus globisporus N75. The arrangement: key: −: it showed no change; +: it showed a slight reduction of the color spot of the substrate and the formation of other reaction product; ++: it showed a high reduction of the color spot of the substrate and the formation of other reaction product; +++: it showed a substantial disappearance of the substrate spot and the formation of other reaction product. The settings on record: two units/g substrate, substrate 2% (w/v), 30° C., pH 6.0, 24 hours, TLC. The procedure:
as §5, §6

Test [15] has the same test system. Briefly: Transfer-acceptor specificity, Enzyme of Strain A19. The class given is biochemical, Arthrobacter globiformis A19. As to conditions: acceptor 1.6%, PINE-DEX #100 donor 4%, one unit/g donor, 30° C., pH 8.4, 24 hours. Summed up:
as §7

Test [16] shares this test system. Briefly: Transfer-acceptor specificity, Enzyme of Strain C9. The class given is biochemical, Bacillus globisporus C9. As to conditions: acceptor 1.6%, PINE-DEX #100 donor 4%, one unit/g donor, 30° C., pH 6.0, 24 hours. Summed up: as §7

Regarding `[Al+3]` [Al^3+], the “Relative activity (%)” value in test [1] is on record as 103%; in [2], 37%; in test [3], 89%; in [4] it was 94%; in [5], 93%.
On to `[Ba+2]` [Ba^2+], for which the “Relative activity (%)” value is recorded as 84% in test [6]; 102% in test [1]; 99% in test [2]; 65% in test [7]; 90% in test [3]; 102% in [4]. In addition, the figures for the “Relative activity (%)” value in [8] and in test [5] were 65% and 97%, respectively. Also, the “influence on the enzyme activity, in words” value (“influence” for short) in test [7] and in [8] (1 mM) was “also inhibited” throughout.
For `[Ca+2]` [Ca^2+], the “influence” value was “activated” in [6], “not activated” in test [1] (1 mM), “activated” in test [7] and “not activated” in [4] (1 mM). The “Relative activity (%)” value in [6] was 108%; in test [1], 101%; in test [2], 106%; in test [7], 109%; in test [3], 91%; in [4], 100%. Besides, the “Relative activity (%)” value came out at 115% in test [8] and 103% in test [5].
Take `[Fe+2]` [Fe^2+]: the “Relative activity (%)” value is 82% in [6]; 36% in [2]; 35% in test [2] (listed as Fe^3+); 88% in [3] (listed as Fe^3+); 90% in test [4] (listed as Fe^3+); 75% in [5] (listed as Fe^3+).
In the case of `[Mn+2]` [Mn^2+], the “influence” value in test [6] and in test [7] was “activated” each time. The “Relative activity (%)” value stood at 120% in test [6], 106% in test [1], 142% in test [7] and 111% in test [8].
Turning to `[Ni+2]` [Ni^2+], the “Relative activity (%)” value in [1] is given as 102%; in test [2], 46%; in [3] it was 89%; in test [4], 91%; in test [5], 87%.
Turning to `OC[C@H]1O[C@@](CO)(O[C@H]2O[C@H](CO)[C@@H](O)[C@H](O)[C@H]2O)[C@@H](O)[C@@H]1O` [Sucrose], the “Enzymatic action, Enzyme of Strain C11” value in test [9] was “−”. Besides, the “Product of transferring reaction, Enzyme of Strain C11” value in [10] is “++ (a saccharide-transferred product was detected in an amount over ten percent through transfer reaction to acceptor)”. The “Enzymatic action, Enzyme of Strain C9” value in test [11] is reported as “−”. Also, the “Product of transferring reaction, Enzyme of Strain N75” value in test [12] is given as “++ (a saccharide-transferred product was detected in an amount over ten percent through transfer reaction to acceptor)”. The “Enzymatic action, Enzyme of Strain A19” value in test [13] is “−”. Also, the “Enzymatic action, Enzyme of Strain N75” value in test [14] is “−”. In test [15], the “Product of transferring reaction, Enzyme of Stain A19” value is “++ (a saccharide-transferred product was detected in an amount over ten percent through transfer reaction to acceptor)”. In test [16], the “Product of transferring reaction, Enzyme of Strain C9” value is listed as “++ (a saccharide-transferred product was detected in an amount over ten percent through transfer reaction to acceptor)”.
For the molecule `OC[C@H]1O[C@H](O[C@H]2O[C@H](CO)[C@@H](O)[C@H](O)[C@H]2O)[C@H](O)[C@@H](O)[C@@H]1O` [Trehalose], the “Enzymatic action, Enzyme of Strain C11” value in [9] is given as “−”. In [10], the “Product of transferring reaction, Enzyme of Strain C11” value is “++ (a saccharide-transferred product was detected in an amount over ten percent through transfer reaction to acceptor)”. Moreover, the “Enzymatic action, Enzyme of Strain C9” value in [11] was “−”. In addition, in test [12], the “Product of transferring reaction, Enzyme of Strain N75” value is on record as “++ (a saccharide-transferred product was detected in an amount over ten percent through transfer reaction to acceptor)”. The “Enzymatic action, Enzyme of Strain A19” value in [13] was “−”. The “Enzymatic action, Enzyme of Strain N75” value in [14] is reported as “−”. The “Product of transferring reaction, Enzyme of Stain A19” value in test [15] is given as “++ (a saccharide-transferred product was detected in an amount over ten percent through transfer reaction to acceptor)”. Further, in test [16], the “Product of transferring reaction, Enzyme of Strain C9” value is reported as “++ (a saccharide-transferred product was detected in an amount over ten percent through transfer reaction to acceptor)”.
